Test results from patent publication US20250382346A1, “NEURONAL PROMOTERS AND USES THEREOF” (priority 2023, published 2025).

What was measured:
rM3Ds = molecular target: T1, rM3Ds (Rattus norvegicus, UniProt P08483, A177S/A238G/A489L/DEL261-437/DEL441-478/E258S/I253V/I483M/INS256[…]/K178L/K182A/K255R/K484R/K486H/L173F/L482A/M480V/R171S/R176Q/R179M/S481M/T174R/T181R/T257A/Y148C); assay: 6-OHDA parkinsonian mouse model: open field and rotarod; assay type: in vivo; set-up: 2A-EYFP (C); expressed in transfected cells; host or cells: neurons (striatal D1-MSNs) of mice or cynomolgus macaques, transduced in vivo by nigral AAV8R12-G88P7-rM3Ds-2A-EYFP; conditions: AAV8R12-G88P7-rM3Ds-2A-EYFP, 6-OHDA mice
T1 sequence (P08483 with tags, fused parts or gaps Y148C/R171S/L173F/T174R/R176Q/A177S/K178L/R179M/T181R/K182A/A238G/I253V/K255R/INS256[…]/T257A/E258S/DEL261-437/DEL441-478/M480V/S481M/L482A/I483M/K484R/K486H/A489L): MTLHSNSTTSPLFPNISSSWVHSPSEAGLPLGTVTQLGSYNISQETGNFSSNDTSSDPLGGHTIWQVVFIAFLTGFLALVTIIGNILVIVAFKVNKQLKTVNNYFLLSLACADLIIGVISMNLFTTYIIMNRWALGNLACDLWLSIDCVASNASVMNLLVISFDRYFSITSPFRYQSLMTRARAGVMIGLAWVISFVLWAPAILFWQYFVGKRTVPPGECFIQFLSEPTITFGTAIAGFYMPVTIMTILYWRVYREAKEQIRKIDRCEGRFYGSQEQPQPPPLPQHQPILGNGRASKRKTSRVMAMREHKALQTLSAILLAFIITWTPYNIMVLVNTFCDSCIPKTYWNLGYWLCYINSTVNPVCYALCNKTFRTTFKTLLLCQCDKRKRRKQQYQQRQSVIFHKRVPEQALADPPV
Description: Rodent Parkinson's disease mice models were created through bilateral injection of 6-OHDA using the same methods as described in virus injections (Example 3). A total volume of 1 ul 6-OHDA (5 mg/ml, dissolved in sterile saline containing 0.02% ascorbic acid, Sigma) was injected into the striatum at a speed of 100 nL/min. The coordinates for striatum were 0.5 mm anterior, 1.5 mm lateral, 3.2 mm ventral to the bregma. A premedication of desipramine (25 mg/kg, Sigma) was administered to animals prior to injections of 6-OHDA, in order to increase the selectivity and efficacy of 6-OHDA-induced lesions. Mice were supplemented with DietGel (ClearH2O) for one-week post-surgery. All staining and behavioral experiments were performed at least 14 days following surgery, when the amount of dopamine depletion was maximal and stable.
To investigate the efficacy and safety of D1-MSN specific neuromodulation strategy, AAV8R12-G88P7-rM3Ds-2A-EYFP was injected into the SNr of adult C57/BL6 mice. 6-OHDA was administered bilaterally into the striatum (FIG. 13A). […]
Mice were individually handled for 10-20 seconds per day for at least 5 days to habituate them to the experimenter. […] The behavioral data were analyzed with ANY-maze software (Stoelting Co.).
Mice were individually handled as described in the open field test. […] Latency to fall for each trial was automatically recorded by the apparatus. […]

hM3Dq = molecular target: T2, hM3Dq (Homo sapiens, UniProt P20309, A239G/Y149C); assay: In vivo electrophysiological recording in caudate of anesthetized macaques, hM3Dq
T2 construct: expressed in transfected cells; host or cells: neurons of C57BL/6J mice or of macaques, transduced in vivo by nigral AAV8R12-G88P3-HA-hM3Dq
Description: • Electrophysiological recording was performed through a recording chamber while the monkey was anesthetized. Neural responses were recorded by a 16-channel linear probe (Plexon Inc, Uprobe) driven by a mechanical microdrive (Alpha Omega, FlexMT). Signals were passed through a head stage (Plexon Inc, HST/16V-G20 LN) and then split and filtered between 300 Hz and 5 kHz to identify spiking activity with an amplifier system (Plexon Inc, OmniPlex). Detected spikes were then sorted by commercially available software (Plexon Inc, Offline Sorter) for further analysis. To quantify the effect of CNO/DCZ injection, neural activity was recorded for 60 minutes following CNO/DCZ injection. The response time-course for each channel was obtained by counting the spikes within every 10-minute window and then normalizing to the maximal.
To determine the effect of CNO/DCZ injection on the direction of signal change, we performed Pearson correlation between neural responses and time using the ‘corr’ function in Matlab, which generates the correlation coefficient ‘r’ and significant level ‘p’. A neuron was considered to have “Increased” activity when r>0 and p<0.05; and considered to have “Decreased” activity when r<0 and p<0.05. Otherwise, neurons were considered to be “Unchanged” in their neural activities. The responses of all increased neurons were then averaged after being normalized by the maximal response (Crowe et al., 2014; Dai and Wang, 2018; Hirokawa et al., 2019) following CNO/DCZ injection, and then plotted as a function of time to generate the normalized population response.

[1] = 34 total cells, CNO infusions, saline 40.6%
[2] = monkey CM045, 34 cells, CNO infusion into dorsomedial caudate

T2 sequence (P20309 whole entry Y149C/A239G): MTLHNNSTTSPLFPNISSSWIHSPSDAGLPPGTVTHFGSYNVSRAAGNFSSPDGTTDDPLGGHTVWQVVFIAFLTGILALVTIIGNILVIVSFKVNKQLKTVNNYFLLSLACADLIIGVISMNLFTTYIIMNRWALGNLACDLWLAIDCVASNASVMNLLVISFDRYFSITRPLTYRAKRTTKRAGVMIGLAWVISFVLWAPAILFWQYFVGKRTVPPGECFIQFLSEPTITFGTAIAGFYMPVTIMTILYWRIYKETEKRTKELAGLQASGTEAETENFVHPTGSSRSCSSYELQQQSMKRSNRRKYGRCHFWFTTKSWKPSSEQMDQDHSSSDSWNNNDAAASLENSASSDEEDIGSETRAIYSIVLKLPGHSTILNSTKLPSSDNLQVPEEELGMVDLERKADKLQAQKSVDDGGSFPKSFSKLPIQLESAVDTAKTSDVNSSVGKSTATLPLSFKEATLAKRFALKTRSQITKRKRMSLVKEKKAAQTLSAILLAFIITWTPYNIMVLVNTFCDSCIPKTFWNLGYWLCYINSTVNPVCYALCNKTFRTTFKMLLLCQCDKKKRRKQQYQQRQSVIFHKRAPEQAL

## C[N+]1([O-])CCN(C2=Nc3cc(Cl)ccc3Nc3ccccc32)CC1 [CNO, Clozapine-N-oxide]
rM3Ds; CNO
  motor skill, rotarod test: partially rescued the motor skill deficit
rM3Ds; systemic CNO
  spontaneous movement in an open field: drastically reversed the dyskinesia-like phenotype of PD mice
hM3Dq; 34 total cells, CNO infusions, saline 18.8%
  cells in caudate activated (FIG. 12L): 67.6%
hM3Dq; [1]
  cells in caudate inactivated (FIG. 12L): 2.9%
  cells in caudate unchanged (FIG. 12L): 29.4%
hM3Dq; [2]
  cells in caudate activated (FIG. 12C): 70.6%
  cells in caudate inactivated (FIG. 12C): 8.8%
  cells in caudate unchanged (FIG. 12C): 20.6%
